In paper PMC12191028, “Preparation of Nanoparticle-Immobilized Gold Surfaces for the Reversible Conjugation of Neurotensin Peptide” (Biomolecules, 2025) one finds Kd data, which are given here for 1 substance.

Assay [1] deals with high-affinity receptor (NTSR2). As to conditions: binding affinity to its high-affinity receptor (NTSR2) according to the literature; ref [69]; cited from earlier work.
Another assay concerns the target NTSR2 antibody. Put plainly: NTSR2 antibody–NTS(8–13) peptide binding affinity by microscale thermophoresis (MST). As to conditions: Monolith NT.115 Pico, RED-NHS-labeled NTSR2 antibody 20 nM, PBS with 0.005% Tween-20, 20 min dark incubation, 16 serial dilutions from 0.5 mg/mL, free peptide in solution, n = 3, read-out: dissociation constant (Kd). On the procedure: An RED-NHS 2nd generation protein labeling kit and Monolith NT.115 premium capillaries were obtained from NanoTemper Technologies (Munich, Germany). The binding affinity of the NTSR2 antibody–NTS(8–13) peptide interaction was evaluated using microscale thermophoresis (MST) with Monolith NT.115 Pico instrument (NanoTemper Technologies, Munich, Germany). The NTSR2 antibody was labeled with the Monolith protein labeling kit and RED-NHS 2nd generation kit and used as a target molecule in PBS with 0.005% Tween-20. Experiments were conducted using the Monolith NT.115 premium capillariesat Pico-RED 80% excitation power and medium MST power with thermophoresis. For the labeled NTSR2 antibody, a concentration of 20 nM was used, whereas for the NTS(8–13) peptide, 16 serial dilutions were prepared starting from 0.5 mg/mL. Dark incubation was performed for 20 min after mixing the target and ligand molecule. Triplicate results were analyzed using the M.O. affinity analysisv.2.3 software.
On the technique in general: Microscale thermophoresis detects binding through changes in fluorescence in a small temperature gradient.

By Kd is commonly meant the equilibrium constant for the complex coming apart. For “RRPYIL [NTS(8–13), fragment of the neurotensin peptide (RRPYIL)]”, the Kd in assay [1] was 0.005 to 0.007 µM; on NTSR2 antibody, 32.9 µM.
